The test concerns the target T1, human full-length MKNK1 (Homo sapiens, UniProt Q9BUB5, T385D).
T1 construct: GST (N); purchased Carna Biosciences 02-145; host or cells: insect cells (baculovirus expression system)
As to the kind of experiment: MKNK1 kinase high ATP assay (TR-FRET). The conditions noted are these: high ATP (2 mM final), 15 min preincubation with enzyme, GST-MKNK1 (T344D). It is filed as biochemical. The protocol: MKNK1-inhibitory activity at high ATP of compounds of the present invention after their preincubation with MKNK1 was quantified employing the TR-FRET-based MKNK1 high ATP assay as described in the following paragraphs.
A recombinant fusion protein of Glutathione-S-Transferase (GST, N-terminally) and human full-length MKNK1 (amino acids 1-424 and T344D of accession number BAA 19885.1), expressed in insect cells using baculovirus expression system and purified via glutathione sepharose affinity chromatography, was purchased from Carna Biosciences (product no 02-145) and used as enzyme. As substrate for the kinase reaction the biotinylated peptide biotin-Ahx-IKKRKLTRRKSLKG (C-terminus in amide form) was used, which can be purchased e.g. from the company Biosyntan (Berlin-Buch, Germany).
For the assay 50 nL of a 100fold concentrated solution of the test compound in DMSO was pipetted into a black low volume 384well microtiter plate (Greiner Bio-One, Frickenhausen, Germany), 2 μL of a solution of MKNK1 in aqueous assay buffer [50 mM HEPES pH 7.5, 5 mM MgCl2, 1.0 mM dithiothreitol, 0.005% (v/v) Nonidet-P40 (Sigma)] was added and the mixture was incubated for 15 min at 22° C. to allow pre-binding of the test compounds to the enzyme before the start of the kinase reaction. Then the kinase reaction was started by the addition of 3 μL of a solution of adenosine-tri-phosphate (ATP, 3.3 mM=>final conc. in the 5 μL assay volume is 2 mM) and substrate (0.1 μM=>final conc. in the 5 μL assay volume is 0.06 μM) in assay buffer and the resulting mixture was incubated for a reaction time of 30 min at 22° C. The concentration of MKNK1 was adjusted depending of the activity of the enzyme lot and was chosen appropriate to have the assay in the linear range, typical concentrations were in the range of 0.003 μg/mL. The reaction was stopped by the addition of 5 μL of a solution of TR-FRET detection reagents (5 nM streptavidine-XL665 [Cisbio Bioassays, Codolet, France] and 1 nM anti-ribosomal protein S6 (pSer236)-antibody from Invitrogen [#44921G] and 1 nM LANCE EU-W1024 labeled ProteinG [Perkin-Elmer, product no. AD0071]) in an aqueous EDTA-solution (100 mM EDTA, 0.1% (w/v) bovine serum albumin in 50 mM HEPES pH 7.5).
The resulting mixture was incubated for 1 h at 22° C. to allow the formation of complex between the phosphorylated biotinylated peptide and the detection reagents. Subsequently the amount of phosphorylated substrate was evaluated by measurement of the resonance energy transfer from the Eu-chelate to the streptavidine-XL. Therefore, the fluorescence emissions at 620 nm and 665 nm after excitation at 350 nm were measured in a TR-FRET reader, e.g. a Rubystar (BMG Labtechnologies, Offenburg, Germany) or a Viewlux (Perkin-Elmer). The ratio of the emissions at 665 nm and at […] was taken as the measure for the amount of phosphorylated substrate. The data were normalised (enzyme reaction without inhibitor=0% inhibition, all other assay components but no enzyme=100% inhibition).
In general terms: Time-resolved FRET reads energy transfer from a long-lived donor to a nearby acceptor.

pIC50: −log10 of the molar value.

T1 sequence (Q9BUB5 1-424 isoform Q9BUB5-2 T344D): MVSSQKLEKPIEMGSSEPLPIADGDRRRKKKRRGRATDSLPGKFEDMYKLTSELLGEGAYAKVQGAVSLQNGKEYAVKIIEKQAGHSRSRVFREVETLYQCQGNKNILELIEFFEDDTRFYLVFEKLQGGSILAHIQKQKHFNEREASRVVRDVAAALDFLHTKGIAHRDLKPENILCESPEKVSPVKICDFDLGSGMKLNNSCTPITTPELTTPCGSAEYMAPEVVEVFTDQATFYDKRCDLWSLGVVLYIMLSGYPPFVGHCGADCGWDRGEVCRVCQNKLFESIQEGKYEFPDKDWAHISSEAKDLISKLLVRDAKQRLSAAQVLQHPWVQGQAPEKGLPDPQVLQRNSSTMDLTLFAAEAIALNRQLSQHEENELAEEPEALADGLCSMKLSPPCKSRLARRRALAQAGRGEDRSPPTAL

`COc1nc2[nH]ncc2cc1Nc1ncnc2sc3c(c12)CCN(C(=O)N1CCOCC1)C3` [Example 52, {4-[(6-Methoxy-1H-pyrazolo[3,4-b]pyridin-5-yl)amino]-5,8-dihydropyrido[4′,3′:4,5]thieno[2,3-d]pyrimidin-7(6H)-yl}(morpholin-4-yl)methanone] showed a pIC50 of 7.89.

In the case of `O=C(N1CCOCC1)N1CCc2c(sc3ncnc(Nc4cc5cn[nH]c5cc4Br)c23)C1` [Example 53, {4-[(6-Bromo-1H-indazol-5-yl)amino]-5,8-dihydropyrido[4′,3′:4,5]thieno[2,3-d]pyrimidin-7(6H)-yl}(morpholin-4-yl)methanone], the pIC50 is 6.59. The figure for `COc1cc2[nH]ncc2cc1Nc1ncnc2sc3c(c12)CCN(C(=O)CC(F)(F)F)C3` [Example 54, 3,3,3-Trifluoro-1-{4-[(6-methoxy-1H-indazol-5-yl)amino]-5,8-dihydropyrido[4′,3′:4,5]thieno[2,3-d]pyrimidin-7(6H)-yl}propan-1-one] is 8.22; for `COc1nc2[nH]ncc2cc1Nc1ncnc2sc3c(c12)CCN(C(=O)C(C)C)C3` [Example 55, 1-{4-[(6-Methoxy-1H-pyrazolo[3,4-b]pyridin-5-yl)amino]-5,8-dihydropyrido[4′,3′:4,5]thieno[2,3-d]pyrimidin-7(6H)-yl}-2-methylpropan-1-one] it is 7.38; for `CC(C)C(=O)N1CCc2c(sc3ncnc(Nc4cc5cn[nH]c5cc4Cl)c23)C1` [Example 56, 1-{4-[(6-Chloro-1H-indazol-5-yl)amino]-5,8-dihydropyrido[4′,3′:4,5]thieno[2,3-d]pyrimidin-7(6H)-yl}-2-methylpropan-1-one] it is 7.15. As to `C[C@@H]1CN(C(=O)N2CCc3c(sc4ncnc(Nc5ccn6nccc6c5)c34)C2)C[C@H](C)O1` [Example 58, [(2R,6S)-2,6-Dimethylmorpholin-4-yl][4-(pyrazolo[1,5-a]pyridin-5-ylamino)-5,8-dihydropyrido[4′,3′:4,5]thieno[2,3-d]pyrimidin-7(6H)-yl]methanone], the pIC50 is 7.21. `COc1nc2[nH]ncc2cc1Nc1ncnc2sc3c(c12)CCN(C(=O)OC(C)(C)C)C3` [Example 59, tert-Butyl 4-[(6-methoxy-1H-pyrazolo[3,4-b]pyridin-5-yl)amino]-5,8-dihydropyrido[4′,3′:4,5]thieno[2,3-d]pyrimidine-7(6H)-carboxylate] had a pIC50 of 8.30. With `c1nc(Nc2cc3cn[nH]c3cn2)c2c3c(sc2n1)CN(CCN1CCOCC1)CC3` [Example 60, 7-[2-(Morpholin-4-yl)ethyl]-N-(1H-pyrazolo[3,4-c]pyridin-5-yl)-5,6,7,8-tetrahydropyrido[4′,3′:4,5]thieno[2,3-d]pyrimidin-4-amine], the negative-log IC50 (pIC50) is 7.01. On to `c1nc(Nc2ccc3[nH]ncc3c2)c2c3c(sc2n1)CN(CCN1CCOCC1)CC3` [Example 61, N-(1H-Indazol-5-yl)-7-[2-(morpholin-4-yl)ethyl]-5,6,7,8-tetrahydropyrido[4′,3′:4,5]thieno[2,3-d]pyrimidin-4-amine], for which the pIC50 is 7.60. Molecule `COc1cc2[nH]ncc2cc1Nc1ncnc2sc3c(c12)CCN(CCN1CCOCC1)C3` [Example 62, N-(6-Methoxy-1H-indazol-5-yl)-7-[2-(morpholin-4-yl)ethyl]-5,6,7,8-tetrahydropyrido[4′,3′:4,5]thieno[2,3-d]pyrimidin-4-amine] gave a pIC50 of 8.05. `O=c1[nH]c2ccc(Nc3ncnc4sc5c(c34)CCN(CCN3CCOCC3)C5)cc2s1` [Example 63, 6-({7-[2-(Morpholin-4-yl)ethyl]-5,6,7,8-tetrahydropyrido[4′,3′:4,5]thieno[2,3-d]pyrimidin-4-yl}amino)-1,3-benzothiazol-2(3H)-one] showed a pIC50 of 6.63. The figure for `c1nc(Nc2cnc3[nH]ncc3c2)c2c3c(sc2n1)CN(CCN1CCOCC1)CC3` [Example 64, 7-[2-(Morpholin-4-yl)ethyl]-N-(1H-pyrazolo[3,4-b]pyridin-5-yl)-5,6,7,8-tetrahydropyrido[4′,3′:4,5]thieno[2,3-d]pyrimidin-4-amine] is 6.92; for `COc1nc2[nH]ncc2cc1Nc1ncnc2sc3c(c12)CCN(C(=O)N(C)C)C3` [Example 65, 4-[(6-Methoxy-1H-pyrazolo[3,4-b]pyridin-5-yl)amino]-N,N-dimethyl-5,8-dihydropyrido[4′,3′:4,5]thieno[2,3-d]pyrimidine-7(6H)-carboxamide] it is 8.30. `CN1CCC(C(=O)N2CCc3c(sc4ncnc(Nc5ccc6[nH]c(=O)sc6c5)c34)C2)CC1` [Example 66, 6-({7-[(1-Methylpiperidin-4-yl)carbonyl]-5,6,7,8-tetrahydropyrido[4′,3′:4,5]thieno[2,3-d]pyrimidin-4-yl}amino)-1,3-benzothiazol-2(3H)-one] gave a pIC50 of 7.05. As for `CN1CCC(C(=O)N2CCc3c(sc4ncnc(Nc5cnc6[nH]ncc6c5)c34)C2)CC1` [Example 67, (1-Methylpiperidin-4-yl)[4-(1H-pyrazolo[3,4-b]pyridin-5-ylamino)-5,8-dihydropyrido[4′,3′:4,5]thieno[2,3-d]pyrimidin-7(6H)-yl]methanone], the figure is 7.28. The figure for `COc1cc2[nH]ncc2cc1Nc1ncnc2sc3c(c12)CCN(C(=O)C1CCN(C)CC1)C3` [Example 68, {4-[(6-Methoxy-1H-indazol-5-yl)amino]-5,8-dihydropyrido[4′,3′:4,5]thieno[2,3-d]pyrimidin-7(6H)-yl}(1-methylpiperidin-4-yl)methanone] is 8.05.

`CN1CCC(C(=O)N2CCc3c(sc4ncnc(Nc5ccc6[nH]ncc6c5)c34)C2)CC1` [Example 69, [4-(1H-Indazol-5-ylamino)-5,8-dihydropyrido[4′,3′:4,5]thieno[2,3-d]pyrimidin-7(6H)-yl](1-methylpiperidin-4-yl)methanone] showed a pIC50 of 7.80. As for `COc1cc2[nH]ncc2cc1Nc1ncnc2sc3c(c12)CCN(C(=O)N1CCCCC1)C3` [Example 70, {4-[(6-Methoxy-1H-indazol-5-yl)amino]-5,8-dihydropyrido[4′,3′:4,5]thieno[2,3-d]pyrimidin-7(6H)-yl}(piperidin-1-yl)methanone], the figure is 7.72; as for `COc1cc2[nH]ncc2cc1Nc1ncnc2sc3c(c12)CCN(CCC(=O)N(C)C)C3` [Example 71, 3-{4-[(6-Methoxy-1H-indazol-5-yl)amino]-5,8-dihydropyrido[4′,3′:4,5]thieno[2,3-d]pyrimidin-7(6H)-yl}-N,N-dimethylpropanamide], 7.72; as for `COc1cc2[nH]ncc2cc1Nc1ncnc2sc3c(c12)CCN(C(=O)N1CCCC1)C3` [Example 72, {4-[(6-Methoxy-1H-indazol-5-yl)amino]-5,8-dihydropyrido[4′,3′:4,5]thieno[2,3-d]pyrimidin-7(6H)-yl}(pyrrolidin-1-yl)methanone], 8.00.

In turn, `COc1cc2[nH]ncc2cc1Nc1ncnc2sc3c(c12)CCN(C(=O)c1cccn1C)C3` [Example 73, {4-[(6-Methoxy-1H-indazol-5-yl)amino]-5,8-dihydropyrido[4′,3′:4,5]thieno[2,3-d]pyrimidin-7(6H)-yl}(1-methyl-1H-pyrrol-2-yl)methanone] gave a negative-log IC50 (pIC50) of 8.15. In turn, `CSc1cc2[nH]ncc2cc1Nc1ncnc2sc3c(c12)CCN(C(=O)C1CCN(C)CC1)C3` [Example 74, (1-Methylpiperidin-4-yl)[4-{[6-(methylsulfanyl)-1H-indazol-5-yl]amino}-5,8-dihydropyrido[4′,3′:4,5]thieno[2,3-d]pyrimidin-7(6H)-yl]methanone] had a pIC50 of 8.40.

Regarding `COc1cc2[nH]ncc2cc1Nc1ncnc2sc3c(c12)CCN(C(=O)c1cnc[nH]1)C3` [Example 75, 1H-Imidazol-5-yl{4-[(6-methoxy-1H-indazol-5-yl)amino]-5,8-dihydropyrido[4′,3′:4,5]thieno[2,3-d]pyrimidin-7(6H)-yl}methanone], the negative-log IC50 (pIC50) was 8.22.

In general, pIC50 refers to the IC50 on a negative log10 scale, so that one unit is a factor of ten.

For the origin of these results see patent US20170107229A1, “SUBSTITUTED TETRAHYDROPYRIDOTHIENOPYRIMIDINES” (BAYER PHARMA AKTIENGESELLSCHAFT, priority 2014, published 2017).
